Tested on: A. fumigatus IDO mutants
Assay: growth inhibition test against A. fumigatus IDO mutants
Type: cell-based
Details: tested against A. fumigatus IDO mutants
Excerpt: In addition to re-purposing duplicated primary metabolism genes to have a biosynthetic role, fungi also utilize duplicated genes from primary metabolism as a form of self-resistance (Refs. A34, A35; incorporated by reference in their entireties). This Type II repurposing represents a particularly attractive avenue for drug discovery, as the duplicated gene will often provide insight into the mechanism of action of the encoded secondary metabolite. Several examples of such Type II repurposing have been discovered by targeting clusters with duplicate resistance targets. The proteasome inhibitor fellutamide B, for example, was discovered due to the presence of a duplicated proteasome subunit within its BGC (36). Similarly, the BGC encoding the methionine aminopeptidase inhibitor fumagillin contains both type I and type II methionine aminopeptidase genes in the gene cluster (FIG. 10) (Ref. A37; incorporated by reference in its entirety). While it is likely that many of the IDOs contained within the BGCs depicted in FIGS. 8 and 9 represent Type I biosynthetic enzymes that provide kynurenine for secondary metabolite synthesis, it is also possible that they represent Type II duplicated gene targets that serve to protect the producing organism against the biosynthetic product. […]

## Nc1ccccc1C(=O)NC1CC(=O)c2ccccc2NC1=O (stereo not shown) [terreazepine, 2-amino-N-(2,3,4,5-tetrahydro-2,5-dioxo-1H-1-benzazepin-3-yl)benzamide]
  growth inhibitory activity: no growth inhibitory activity was observed
